Data from patent US9062038B2, “Heteroaryls and uses thereof” (Millennium Pharmaceuticals, Inc., priority 2010, dated 2015).

Experiments:
PI3Kalpha = target: T1, PI3Kalpha (Homo sapiens, UniProt P42336); test: Human PI3Kα enzyme assay (HTRF); type: biochemical
T1 construct: His (N); host or cells: SF9 insect cells (baculovirus)
Text: (§1) The catalytic subunits of PI3Ks are cloned into either pDEST8(p110 alpha) or pDEST10(p110beta, p110delta, and p110gamma) as N-terminal His tagged fusion proteins using the Gateway system (Invitrogen, catalog#11804-010 for pDEST8 and 11806-015 for pDEST10). The sequences are verified before recombinant protein expression using the Baculovirus Expression System with Gateway® Technology. The accession numbers for the subunits are as follows: • p110 alpha (GB: U79143) • p110beta (GB: S67334) • p110delta (GB: U86453) • p110gamma (GB: X83368)
(§2) The regulatory subunits of PI3Ks are cloned into pDEST8 as un-tagged protein using the Gateway system (Catalog#11804-010). […]
(§3) 0.5 uL compounds in DMSO are added to wells of a 384 well microtitre plate (Corning 3575). […] Then 5 ul PI3K stop mix (50 mM Hepes, 5 mM DTT, 150 mM NaCl, 0.01% Tween-20, 15 mM EDTA and 25 nM biotin-PI(3,4,5)P3 (Echelon) is added to quench the reaction followed immediately by addition of 5 ul HTRF detection mix (50 mM Hepes, 5 mM DTT, 150 mM NaCl, 0.01% Tween-20, 40 mM KF, 10 nM GST:GRP-1 PH domain (Millennium Protein Sciences Group), 15 nM Streptavidin-XL (CisBio) and 0.375 nM anti-GST antibody (CisBio) at pH 7.00). The plates are then incubated for 1 hour at room temperature with shaking and then read on a BMG PheraStar Plus reader.

PI3K beta = target: T2, PI3K beta (Homo sapiens, UniProt P42338); test: Human PI3K beta enzyme assay (HTRF, procedure as for PI3K alpha); type: biochemical
T2 construct: His (N); host or cells: SF9 insect cells (baculovirus)
Text: as §1, §2
as §3, with “reader. […]” for “reader.”

T2 sequence (P42338 whole entry): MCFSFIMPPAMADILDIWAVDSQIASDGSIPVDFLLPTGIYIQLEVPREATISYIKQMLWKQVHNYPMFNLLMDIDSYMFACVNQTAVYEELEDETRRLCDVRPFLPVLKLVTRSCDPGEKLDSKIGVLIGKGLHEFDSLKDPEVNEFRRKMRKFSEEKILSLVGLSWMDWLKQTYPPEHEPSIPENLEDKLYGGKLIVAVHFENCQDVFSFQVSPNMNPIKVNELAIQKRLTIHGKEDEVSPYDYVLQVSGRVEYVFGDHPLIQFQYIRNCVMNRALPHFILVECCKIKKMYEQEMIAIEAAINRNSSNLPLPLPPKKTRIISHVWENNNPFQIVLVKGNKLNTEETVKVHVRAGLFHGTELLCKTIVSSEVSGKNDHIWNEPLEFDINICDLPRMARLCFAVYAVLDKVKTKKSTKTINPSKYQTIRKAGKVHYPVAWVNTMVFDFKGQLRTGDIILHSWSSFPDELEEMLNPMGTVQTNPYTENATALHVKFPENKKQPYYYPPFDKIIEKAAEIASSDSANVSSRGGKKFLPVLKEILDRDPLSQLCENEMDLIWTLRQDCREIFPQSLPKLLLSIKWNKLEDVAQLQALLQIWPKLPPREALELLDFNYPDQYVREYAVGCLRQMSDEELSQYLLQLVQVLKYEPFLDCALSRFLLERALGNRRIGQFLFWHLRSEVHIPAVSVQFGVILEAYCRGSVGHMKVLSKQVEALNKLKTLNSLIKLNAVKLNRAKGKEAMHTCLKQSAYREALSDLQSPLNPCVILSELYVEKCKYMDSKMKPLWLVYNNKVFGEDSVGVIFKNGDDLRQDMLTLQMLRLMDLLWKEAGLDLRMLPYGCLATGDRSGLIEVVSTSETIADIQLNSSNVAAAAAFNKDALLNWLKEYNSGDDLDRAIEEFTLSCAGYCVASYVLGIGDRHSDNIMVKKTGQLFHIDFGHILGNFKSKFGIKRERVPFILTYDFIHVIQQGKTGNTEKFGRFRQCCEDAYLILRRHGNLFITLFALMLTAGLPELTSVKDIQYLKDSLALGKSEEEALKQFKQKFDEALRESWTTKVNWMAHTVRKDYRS
T2 sequence (P27986 whole entry partner): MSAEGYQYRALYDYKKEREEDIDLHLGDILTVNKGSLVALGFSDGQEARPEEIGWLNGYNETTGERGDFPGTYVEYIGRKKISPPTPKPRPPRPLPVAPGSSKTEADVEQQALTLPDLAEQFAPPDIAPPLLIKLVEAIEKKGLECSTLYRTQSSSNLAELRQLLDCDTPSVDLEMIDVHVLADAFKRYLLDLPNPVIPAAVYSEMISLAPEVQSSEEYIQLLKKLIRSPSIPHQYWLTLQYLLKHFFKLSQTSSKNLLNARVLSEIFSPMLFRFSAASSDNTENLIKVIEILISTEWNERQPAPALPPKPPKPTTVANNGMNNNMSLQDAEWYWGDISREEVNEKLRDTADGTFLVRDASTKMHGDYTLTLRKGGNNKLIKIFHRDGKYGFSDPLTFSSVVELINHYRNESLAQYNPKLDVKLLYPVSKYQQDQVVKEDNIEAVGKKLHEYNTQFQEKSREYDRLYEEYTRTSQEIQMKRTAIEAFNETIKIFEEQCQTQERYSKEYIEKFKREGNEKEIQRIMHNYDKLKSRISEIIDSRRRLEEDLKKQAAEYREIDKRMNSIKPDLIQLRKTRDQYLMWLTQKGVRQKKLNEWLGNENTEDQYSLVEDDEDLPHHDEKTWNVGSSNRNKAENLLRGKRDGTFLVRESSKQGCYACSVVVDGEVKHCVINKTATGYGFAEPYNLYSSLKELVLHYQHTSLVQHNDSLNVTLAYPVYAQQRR
T1 sequence (P42336 whole entry): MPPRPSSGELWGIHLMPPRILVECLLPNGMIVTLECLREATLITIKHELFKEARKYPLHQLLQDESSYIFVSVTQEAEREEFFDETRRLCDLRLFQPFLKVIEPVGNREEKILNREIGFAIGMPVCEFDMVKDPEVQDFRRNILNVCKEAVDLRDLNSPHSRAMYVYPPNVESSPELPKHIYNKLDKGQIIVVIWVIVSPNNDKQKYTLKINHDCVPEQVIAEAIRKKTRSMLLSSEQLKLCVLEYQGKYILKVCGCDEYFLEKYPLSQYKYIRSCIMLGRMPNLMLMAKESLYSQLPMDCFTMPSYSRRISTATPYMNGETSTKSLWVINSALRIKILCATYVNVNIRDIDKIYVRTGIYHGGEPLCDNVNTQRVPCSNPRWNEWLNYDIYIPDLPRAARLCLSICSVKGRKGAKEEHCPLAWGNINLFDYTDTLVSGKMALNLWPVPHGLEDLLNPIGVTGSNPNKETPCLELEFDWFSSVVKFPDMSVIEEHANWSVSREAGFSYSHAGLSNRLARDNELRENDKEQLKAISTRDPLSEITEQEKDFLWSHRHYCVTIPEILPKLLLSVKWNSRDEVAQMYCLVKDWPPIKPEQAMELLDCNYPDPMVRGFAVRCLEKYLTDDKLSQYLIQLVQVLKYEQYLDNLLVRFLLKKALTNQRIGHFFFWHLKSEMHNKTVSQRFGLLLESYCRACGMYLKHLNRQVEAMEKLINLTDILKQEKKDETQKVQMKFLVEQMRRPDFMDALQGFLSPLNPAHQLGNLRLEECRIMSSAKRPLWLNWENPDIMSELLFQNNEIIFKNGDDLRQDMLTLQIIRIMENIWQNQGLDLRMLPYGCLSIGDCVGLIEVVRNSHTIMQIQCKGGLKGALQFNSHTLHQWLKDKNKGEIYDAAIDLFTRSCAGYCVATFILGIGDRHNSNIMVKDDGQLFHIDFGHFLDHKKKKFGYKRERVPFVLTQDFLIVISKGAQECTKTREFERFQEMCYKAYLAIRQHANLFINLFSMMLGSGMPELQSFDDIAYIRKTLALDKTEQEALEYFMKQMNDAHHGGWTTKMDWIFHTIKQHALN
T1 sequence (P27986 whole entry partner): as the sequence (P27986 whole entry partner) above

IC50 (PI3Kalpha) [nM]	IC50 (PI3K beta) [nM]	SMILES
> 1000	100 to 1000	NC(=O)c1nc(-c2ccncc2)oc1Cc1ccc(Cl)cc1 [Compound 1, 5-(4-chlorobenzyl)-2-pyridin-4-yl-1,3-oxazole-4-carboxamide]
> 1000	100 to 1000	Clc1ccc(Cc2oc(-c3ccncc3)nc2-c2nnc[nH]2)cc1 [Compound 2, 4-[5-(4-chlorobenzyl)-4-(4H-1,2,4-triazol-3-yl)-1,3-oxazol-2-yl]pyridine]
